In US20090018111A1, “Novel Antimicrobial Medicament” (priority 2004, published 2009):
Where two headings read alike, the source gives them in different places.

Assays:
Test in all cases: Sensitivity test (agar dilution)
[1] = test system: P. aeruginosa TL-2667; type: cell-based, Pseudomonas aeruginosa; conditions: Pseudomonas aeruginosa
Summary of the method: (§1)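 FIC index is computed from MICs of each drug alone versus in combination (≤1 = enhancement, >1 = none). MICs are measured on Mueller Hinton agar plates carrying twofold dilution series and inoculated with about 10^6 CFU/ml bacterial suspension.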

[2] = test system: P. aeruginosa IFO3451; type: cell-based, Pseudomonas aeruginosa; conditions: Pseudomonas aeruginosa
Summary of the method: as §1

[3] = test system: P. aeruginosa TL-2666; type: cell-based, Pseudomonas aeruginosa; conditions: Pseudomonas aeruginosa
Summary of the method: as §1

[4] = test system: E. faecium ATCC19434; type: cell-based, Enterococcus faecium; conditions: for MIC: Enterococcus faecium
Summary of the method: as §1

[5] = test system: E. coli NIHJ JC-2; type: cell-based, Escherichia coli; conditions: Escherichia coli
Summary of the method: as §1

[6] = test system: E. coli ML1410; type: cell-based, Escherichia coli; conditions: Escherichia coli
Summary of the method: as §1

[7] = test system: S. maltophilia IID1275; type: cell-based, Stenotrophomonas maltophilia; conditions: Stenotrophomonas maltophilia
Summary of the method: as §1

## C[C@H]1C=C(c2csc(SC3=C(C(=O)O)N4C(=O)[C@H]([C@@H](C)O)[C@H]4[C@H]3C)n2)CN1 [SM, (4R,5S,6S)-6-[(1R)-1-Hydroxyethyl]-4-methyl-3-({4-[(5S)-5-methyl-2,5-dihydro-1H-pyrrol-3-yl]-1,3-thiazol-2-yl}sulfanyl)-7-oxo-1-azabicyclo[3.2.0]hept-2-ene-2-carboxylic acid]
[1]; TL2667, Concomitant (MEPM:SM = 1:1), read-out: MIC
  MIC: 4 µg/mL
[1]; TL2667, Concomitant (MEPM:SM = 1:2), read-out: MIC
  MIC: 4 µg/mL
[1]; TL2667, Concomitant (MEPM:SM = 1:4), read-out: MIC
  MIC: 8 µg/mL
[1]; TL2667, Concomitant (PAPM:SM = 1:1), P. aeruginosa TL-2667, read-out: MIC concomitant
  MIC: 16 µg/mL
[1]; TL2667, Concomitant (PIPC:SM = 1:1), P. aeruginosa TL-2667, read-out: MIC concomitant
  MIC: 16 µg/mL
[1]; TL2667, Concomitant drug (MEPM:SM = 2:1), read-out: MIC
  MIC: 2 µg/mL
[1]; TL2667, alone, read-out: MIC
  MIC: 16 µg/mL
[1]; TL2667, drug alone, P. aeruginosa TL-2667, read-out: MIC alone
  MIC: 16 µg/mL
[2]; IFO3451, Concomitant (AZT:SM = 1:1), P. aeruginosa IFO3451, read-out: MIC concomitant
  MIC: 2 µg/mL
[2]; IFO3451, Concomitant (BIPM:SM = 1:1), P. aeruginosa IFO3451, read-out: MIC concomitant
  MIC: 0.25 µg/mL
[2]; IFO3451, Concomitant (CAZ:SM = 1:1), P. aeruginosa IFO3451, read-out: MIC concomitant
  MIC: 2 µg/mL
[2]; IFO3451, Concomitant (CPFX:SM = 1:1), P. aeruginosa IFO3451, read-out: MIC concomitant
  MIC: 0.125 µg/mL
[2]; IFO3451, Concomitant (DRPM:SM = 1:1), P. aeruginosa IFO3451, read-out: MIC concomitant
  MIC: 0.25 µg/mL
[2]; IFO3451, Concomitant (IPM:SM = 1:1), read-out: MIC
  MIC: 0.5 µg/mL
[2]; IFO3451, Concomitant (MEPM:SM = 1:1), read-out: MIC
  MIC: 0.5 µg/mL
[2]; IFO3451, Concomitant (MEPM:SM = 1:2), read-out: MIC
  MIC: 1 µg/mL
[2]; IFO3451, Concomitant (MEPM:SM = 1:4), read-out: MIC
  MIC: 2 µg/mL
[2]; IFO3451, Concomitant (PAPM:SM = 1:1), P. aeruginosa IFO3451, read-out: MIC concomitant
  MIC: 2 µg/mL
[2]; IFO3451, Concomitant (PIPC:SM = 1:1), P. aeruginosa IFO3451, read-out: MIC concomitant
  MIC: 8 µg/mL
[2]; IFO3451, Concomitant drug (MEPM:SM = 2:1), read-out: MIC
  MIC: 0.25 µg/mL
[2]; IFO3451, alone, read-out: MIC
  MIC: 8 µg/mL
[2]; IFO3451, drug alone, P. aeruginosa IFO3451, read-out: MIC alone
  MIC: 8 µg/mL
[3]; TL2666, Concomitant (AZT:SM = 1:1), P. aeruginosa TL-2666, read-out: MIC concomitant
  MIC: 8 µg/mL
[3]; TL2666, Concomitant (BIPM:SM = 1:1), P. aeruginosa TL-2666, read-out: MIC concomitant
  MIC: 1 µg/mL
[3]; TL2666, Concomitant (CAZ:SM = 1:1), P. aeruginosa TL-2666, read-out: MIC concomitant
  MIC: 8 µg/mL
[3]; TL2666, Concomitant (CPFX:SM = 1:1), P. aeruginosa TL-2666, read-out: MIC concomitant
  MIC: 2 µg/mL
[3]; TL2666, Concomitant (DRPM:SM = 1:1), P. aeruginosa TL-2666, read-out: MIC concomitant
  MIC: 1 µg/mL
[3]; TL2666, Concomitant (IPM:SM = 1:1), read-out: MIC
  MIC: 1 µg/mL
[3]; TL2666, Concomitant (MEPM:SM = 1:1), read-out: MIC
  MIC: 1 µg/mL
[3]; TL2666, Concomitant (MEPM:SM = 1:2), read-out: MIC
  MIC: 2 µg/mL
[3]; TL2666, Concomitant (MEPM:SM = 1:4), read-out: MIC
  MIC: 4 µg/mL
[3]; TL2666, Concomitant (PAPM:SM = 1:1), P. aeruginosa TL-2666, read-out: MIC concomitant
  MIC: 8 µg/mL
[3]; TL2666, Concomitant (PIPC:SM = 1:1), P. aeruginosa TL-2666, read-out: MIC concomitant
  MIC: 16 µg/mL
[3]; TL2666, Concomitant drug (MEPM:SM = 2:1), read-out: MIC
  MIC: 0.5 µg/mL
[3]; TL2666, alone, read-out: MIC
  MIC: 16 µg/mL
[3]; TL2666, drug alone, P. aeruginosa TL-2666, read-out: MIC alone
  MIC: 16 µg/mL
[4]; ATCC19434, Concomitant (AZT:SM = 1:1), E. faecium ATCC19434, read-out: MIC concomitant
  MIC: 0.125 µg/mL
[4]; ATCC19434, Concomitant (BIPM:SM = 1:1), E. faecium ATCC19434, read-out: MIC concomitant
  MIC: 0.25 µg/mL
[4]; ATCC19434, Concomitant (CAZ:SM = 1:1), E. faecium ATCC19434, read-out: MIC concomitant
  MIC: 0.125 µg/mL
[4]; ATCC19434, Concomitant (CPFX:SM = 1:1), E. faecium ATCC19434, read-out: MIC concomitant
  MIC: 0.25 µg/mL
[4]; ATCC19434, Concomitant (DRPM:SM = 1:1), E. faecium ATCC19434, read-out: MIC concomitant
  MIC: 0.25 µg/mL
[4]; ATCC19434, Concomitant (IPM:SM = 1:1), read-out: MIC
  MIC: 0.125 µg/mL
[4]; ATCC19434, Concomitant (MEPM:SM = 1:1), read-out: MIC
  MIC: 0.125 µg/mL
[4]; ATCC19434, Concomitant (MEPM:SM = 1:2), read-out: MIC
  MIC: 0.25 µg/mL
[4]; ATCC19434, Concomitant (MEPM:SM = 1:4), read-out: MIC
  MIC: 0.125 µg/mL
[4]; ATCC19434, Concomitant (PAPM:SM = 1:1), E. faecium ATCC19434, read-out: MIC concomitant
  MIC: 0.125 µg/mL
[4]; ATCC19434, Concomitant (PIPC:SM = 1:1), E. faecium ATCC19434, read-out: MIC concomitant
  MIC: 0.125 µg/mL
[4]; ATCC19434, Concomitant drug (MEPM:SM = 2:1), read-out: MIC
  MIC: 0.25 µg/mL
[4]; ATCC19434, alone, read-out: MIC
  MIC: 0.25 µg/mL
[4]; ATCC19434, drug alone, E. faecium ATCC19434, read-out: MIC alone
  MIC: 0.25 µg/mL
[4]; drug alone, E. faecium ATCC19434
  MIC alone: 0.125 µg/mL
[5]; NIHJJC2, Concomitant (AZT:SM = 1:1), E. coli NIHJ JC-2, read-out: MIC concomitant
  MIC: 0.063 µg/mL
[5]; NIHJJC2, Concomitant (BIPM:SM = 1:1), E. coli NIHJ JC-2, read-out: MIC concomitant
  MIC: 0.031 µg/mL
[5]; NIHJJC2, Concomitant (CAZ:SM = 1:1), E. coli NIHJ JC-2, read-out: MIC concomitant
  MIC: 0.063 µg/mL
[5]; NIHJJC2, Concomitant (CPFX:SM = 1:1), E. coli NIHJ JC-2, read-out: MIC concomitant
  MIC: ≤ 0.002 µg/mL
[5]; NIHJJC2, Concomitant (DRPM:SM = 1:1), E. coli NIHJ JC-2, read-out: MIC concomitant
  MIC: 0.016 µg/mL
[5]; NIHJJC2, Concomitant (IPM:SM = 1:1), read-out: MIC
  MIC: 0.063 µg/mL
[5]; NIHJJC2, Concomitant (MEPM:SM = 1:1), read-out: MIC
  MIC: ≤ 0.016 µg/mL
[5]; NIHJJC2, Concomitant (MEPM:SM = 1:2), read-out: MIC
  MIC: ≤ 0.031 µg/mL
[5]; NIHJJC2, Concomitant (MEPM:SM = 1:4), read-out: MIC
  MIC: ≤ 0.063 µg/mL
[5]; NIHJJC2, Concomitant (PAPM:SM = 1:1), E. coli NIHJ JC-2, read-out: MIC concomitant
  MIC: 0.063 µg/mL
[5]; NIHJJC2, Concomitant (PIPC:SM = 1:1), E. coli NIHJ JC-2, read-out: MIC concomitant
  MIC: 0.063 µg/mL
[5]; NIHJJC2, Concomitant drug (MEPM:SM = 2:1), read-out: MIC
  MIC: ≤ 0.008 µg/mL
[5]; NIHJJC2, alone, read-out: MIC
  MIC: 0.125 µg/mL
[5]; NIHJJC2, drug alone, E. coli NIHJ JC-2, read-out: MIC alone
  MIC: 0.125 µg/mL
[6]; ML1410, Concomitant (AZT:SM = 1:1), E. coli ML1410, read-out: MIC concomitant
  MIC: 0.063 µg/mL
[6]; ML1410, Concomitant (BIPM:SM = 1:1), E. coli ML1410, read-out: MIC concomitant
  MIC: 0.063 µg/mL
[6]; ML1410, Concomitant (CAZ:SM = 1:1), E. coli ML1410, read-out: MIC concomitant
  MIC: 0.063 µg/mL
[6]; ML1410, Concomitant (CPFX:SM = 1:1), E. coli ML1410, read-out: MIC concomitant
  MIC: 0.125 µg/mL
[6]; ML1410, Concomitant (DRPM:SM = 1:1), E. coli ML1410, read-out: MIC concomitant
  MIC: 0.031 µg/mL
[6]; ML1410, Concomitant (IPM:SM = 1:1), read-out: MIC
  MIC: 0.125 µg/mL
[6]; ML1410, Concomitant (MEPM:SM = 1:1), read-out: MIC
  MIC: ≤ 0.016 µg/mL
[6]; ML1410, Concomitant (MEPM:SM = 1:2), read-out: MIC
  MIC: ≤ 0.031 µg/mL
[6]; ML1410, Concomitant (MEPM:SM = 1:4), read-out: MIC
  MIC: ≤ 0.063 µg/mL
[6]; ML1410, Concomitant (PAPM:SM = 1:1), E. coli ML1410, read-out: MIC concomitant
  MIC: 0.125 µg/mL
[6]; ML1410, Concomitant (PIPC:SM = 1:1), E. coli ML1410, read-out: MIC concomitant
  MIC: 0.125 µg/mL
[6]; ML1410, Concomitant drug (MEPM:SM = 2:1), read-out: MIC
  MIC: ≤ 0.008 µg/mL
[6]; ML1410, alone, read-out: MIC
  MIC: 0.25 µg/mL
[6]; ML1410, drug alone, E. coli ML1410, read-out: MIC alone
  MIC: 0.25 µg/mL
[7]; IID1275, Concomitant (AZT:SM = 1:1), S. maltophilia IID1275, read-out: MIC concomitant
  MIC: > 32 µg/mL
[7]; IID1275, Concomitant (BIPM:SM = 1:1), S. maltophilia IID1275, read-out: MIC concomitant
  MIC: > 32 µg/mL
[7]; IID1275, Concomitant (CAZ:SM = 1:1), S. maltophilia IID1275, read-out: MIC concomitant
  MIC: > 32 µg/mL
[7]; IID1275, Concomitant (CPFX:SM = 1:1), S. maltophilia IID1275, read-out: MIC concomitant
  MIC: 1 µg/mL
[7]; IID1275, Concomitant (DRPM:SM = 1:1), S. maltophilia IID1275, read-out: MIC concomitant
  MIC: > 32 µg/mL
[7]; IID1275, Concomitant (IPM:SM = 1:1), read-out: MIC
  MIC: > 32 µg/mL
[7]; IID1275, Concomitant (MEPM:SM = 1:1), read-out: MIC
  MIC: > 32 µg/mL
[7]; IID1275, Concomitant (MEPM:SM = 1:2), read-out: MIC
  MIC: > 64 µg/mL
[7]; IID1275, Concomitant (MEPM:SM = 1:4), read-out: MIC
  MIC: > 128 µg/mL
[7]; IID1275, Concomitant (PAPM:SM = 1:1), S. maltophilia IID1275, read-out: MIC concomitant
  MIC: > 32 µg/mL
[7]; IID1275, Concomitant (PIPC:SM = 1:1), S. maltophilia IID1275, read-out: MIC concomitant
  MIC: > 32 µg/mL
[7]; IID1275, Concomitant drug (MEPM:SM = 2:1), read-out: MIC
  MIC: > 16 µg/mL
[7]; IID1275, drug alone, S. maltophilia IID1275, read-out: MIC alone
  MIC: > 32 µg/mL
